Source: patent publication US20140186306A1, “NOVEL AMPK AGONIST COMPOSITIONS AND METHODS OF USE” (priority 2012, published 2014)

What was measured:
mice = settings: oral dose of 500 mg/Kg/day over a 4 week period; cited from earlier work
[1] = human, in vivo, cited from earlier work
[2] = tested on: horses with joint and/or soft tissue lameness; experiment: Clinical response of racing and non-racing horses with joint and/or soft tissue lameness to AICAR injected intra-articularly or locally infiltrated; type: in vivo, horse; settings: all treated horses; localized injection of 1.3 mg/ml AICAR
Experimental: In the examples below the novel or test composition indicated as NOVEL was comprised of 1.3 mg/ml solutions of AICAR. The purpose of this study was to evaluate the clinical response of racing and non-racing horses with joint and/or soft tissue lameness to various doses of AICAR, either injected intra-articularly or locally infiltrated into the affected soft tissue structure. […] In most cases, multiple joints or soft tissue structures per animal were treated. In some cases, joints and soft tissue structures were injected simultaneously.
Addition of 0.5 ml of an aminoglycoside antibiotic per 2.5 ml vial of AICAR was left up to the discretion of the attending veterinarian. Prior to the treatment, each case was graded for lameness, swelling and heat, and pain. Each injected joint received either one, 1.3 mg/ml, 2.5 ml dose (3.25 mg) for a small joint, or two, 2.5 ml dose vials for large (stifle) joints. Soft tissue structures, including tendons and tendon sheaths, suspensory ligaments, exostoses (splints), periosteal osteitis, and perineural injections were done with multiple vials of the AICAR. The dose was dependent upon the perceived surface area to be treated. The horses were re-examined at various times post-injection as most horses were stabled at locations remote to the veterinarians. All cases were followed up by telephone calls to trainers/caretakers within 24 hours. […]

For NC(=O)c1ncn([C@@H]2O[C@H](CO)[C@@H](O)[C@H]2O)c1N [AICAR, 5-amino-1-β-D-ribofuranosyl-imidazole-4-carboxamide], the performance-enhancing activity (mice) is listed as “performance-enhancing activity”, the oral bioavailability ([1]; po) is listed as “less than 5%” and the plasma clearance [1] is listed as 36.7 mL/min/kg. The adverse events [2] was “No adverse events were reported with the exception of transient swelling of a fetlock that was traumatically injected”.
